The AUC(0-t) is the area under the concentration-time curve up to a stated or last time point. A high value points to more exposure. As a reminder, the Cmax is the maximum level reached in the sampled fluid or tissue. The half-life is the time needed for the level to fall by half in the phase considered. Low values mean fast loss, high ones slow loss. As a reminder, the bioavailability is the share of a dose that reaches the circulation, judged against a reference dose that is usually intravenous.

For one data set, the system named is pERK1/2. As to the kind of experiment: Western blotting, 6-OAP/BOR. The class given is cell-based, human. To be noted: MM.1S; 6-OAP 5 µM for 6 h. On the procedure:
(§1) Cell pellets were lysed in RIPA buffer containing 50 mM Tris pH 8.0, 150 mM NaCl, 0.1% SDS, 0.5% deoxycholate, 1% NP-40, 1 mM DTT, 1 mM NaF, 1 mM sodium vanadate, and protease inhibitors cocktail (Sigma). For immunoprecipitations, cells were lysed on ice for 15 minutes in RIPA buffer. Lysates were centrifuged. The supernatant was incubated with indicated antibodies overnight, after which protein A/G Plus beads (Santa Cruz Biotechnology) were added and incubated for 3 h. The beads were washed 4 times in RIPA buffer. Then the beads were resuspended in 1× sample buffer and boiled for 3 min. Protein extracts were quantitated and loaded on 8% to 12% sodium dodecyl sulfate polyacrylamide gel, electrophoresed, and transferred to a nitrocellulose membrane (Whatman). The membrane was incubated with primary antibody, washed, and incubated with horseradish peroxidase (HRP)–conjugated secondary antibody (Pierce). Detection was performed by using a chemiluminescent western detection kit (Cell Signaling). […]
On the technique in general: A western blot detects proteins with antibodies after separation by electrophoresis.

Data set [1] is described as follows: Pharmacokinetic study (LC-MS/MS plasma concentration). The note with it: rat; for MRT last: read-out: MRT0-t. It counts as in vivo, Sprague-Dawley rats. As for the experimental part: Eight Sprague–Dawley rats (220–250 g, female) were bought from the Laboratory Animal Center of Nanfang Medical University (Guangzhou, China), and maintained and monitored in a specific pathogen-free environment. They were fasted overnight before the experiments. All rat studies were conducted according to protocols approved by the Animal Ethics Committee of our institute. Four rats were administered with 6-OAP (30 mg/kg) by intravenous injection, and the other four rats were inoculated with 6-OAP (40 mg/kg) by intraperitoneal injection. Blood samples of 100–200 µL were collected from the orbit at the time points indicated. The plasma concentrations of 6-OAP were determined by LC-MS/MS. The pharmacokinetic parameters were obtained from the pharmacokinetic software DAS 2.0 (Drug and Statistics Version 2.0).

A further data set deals with cyclin B1. As to the kind of experiment: Western blotting. The class given is cell-based, human. To be noted: U266, MM.1S and CD138+ primary cells. On the procedure: as §1
(§2) Figure 3 6-OAP accumulates cyclin B1 which is required for mitotic arrest. […] After co-incubation with 6-OAP for 18 h, the cells were then harvested and detected by Leica DMI 400B microscope (D), or analyzed by flow cytometry for the cell cycle distribution (E). To evaluate cell growth, the cells were treated with 6-OAP for indicated time points and analyzed by trypan blue exclusion assay (F). […] (H) U266 cells were treated without or with 7.5 µM 6-OAP for 24 h, and stained with anti-α-tubulin and anti-BubR1 antibodies to visualize microtubules (green), BubR1 (red), and DAPI to counter stained DNA (blue), and analyzed by confocal microscopy. […]

Another data set relates to pCdc2 (Y15). In words: Western blotting. It counts as cell-based, human. The note with it: U266, MM.1S and CD138+ primary cells. As for the experimental part: as §1, §2
For the next data set, the system named is cyclin D1. In words: Western blotting. The class given is cell-based, human. The note with it: U266 and MM1.S cells; 12 to 48 h. As for the experimental part: as §1, §2
[2] abbreviates: female, Sprague-Dawley, in vivo, ip (40 mg/kg).
The mark [3] stands for this setting: female, Sprague-Dawley, in vivo, iv (30 mg/kg).

Each structure is given as a SMILES string. Read-outs that look alike come from different tables or passages of the source.

For the compound `CC=C(C)C(=O)OC1C2C(CC(C)C3C=CC(=O)C31C)OC(=O)C2C` (stereo not drawn) [6-OAP, 6-O-angeloylplenolin], in the data set on pERK1/2, the “phosphorylated ERK1/2” value is on record as “induced an increase in phosphorylated ERK1/2”. Also, the AUC(0-t) in data set [1] (setting [2]) was found to be 18000 ± 2700 ng·h/mL; in data set [1] (setting [3]) it was 14700 ± 1020 ng·h/mL. The Cmax in data set [1] (setting [2]) was determined as 3870 ± 1120 ng/mL; in data set [1] (setting [3]) it was 16400 ± 1940 ng/mL. Further, the half-life in data set [1] (setting [2]) is 4.68 ± 0.463 h; in data set [1] (setting [3]) it was 1.76 ± 0.453 h. The bioavailability in data set [1] (female, Sprague-Dawley, in vivo, ip (40 mg/kg), read-out: BA (bioavailability)) stood at 92.5%. For the same compound, the MRT last in data set [1] (setting [2]) came to 5.75 ± 1.03 h; in data set [1] (setting [3]) it was 1.44 ± 0.448 h. Moreover, the clearance in data set [1] (female, Sprague-Dawley, in vivo, iv (30 mg/kg), read-out: CLz (converted)) was 34.1 mL/min/kg. Further, the Tmax in data set [1] (female, Sprague-Dawley, in vivo, ip, 40 mg/kg, ip 40 mg/kg, read-out: time of peak concentration (converted)) was 0.813 h; in data set [1] (female, Sprague-Dawley, in vivo, ip, 40 mg/kg, ip (40 mg/kg), read-out: Tmax), 0.813 ± 0.08 h; in data set [1] (female, Sprague-Dawley, in vivo, iv, 30 mg/kg, iv 30 mg/kg, read-out: time of peak concentration (converted)), 0.033 h; in data set [1] (female, Sprague-Dawley, in vivo, iv, 30 mg/kg, iv (30 mg/kg), read-out: Tmax) it was 0.033 h. In data set [1] (ip 40 mg/kg), this compound gave a CLz of 37.33 ± 5.58 mL/min/kg. Besides, the values for the peak plasma concentration in data set [1] (ip 40 mg/kg) and in data set [1] (iv 30 mg/kg) were 11.191 ± 3.225 µM and 47.506 ± 5.595 µM, respectively. Further, in the data set with cyclin B1, the “cyclin B1 level” value is on record as “increase of cyclin B1”. Also, in the data set on pCdc2 (Y15), the “pCdc2 (Y15) level” value was “decrease of tyrosine-15-phosphorylated Cdc2”. In addition, in the data set with cyclin D1, the “cyclin D1 level” value is listed as “down-regulated”.
